Results from PMC7914775, “Molecules Present in Plant Essential Oils for Prevention and Treatment of Colorectal Cancer (CRC)” (Molecules, 2021).
Like-named read-outs stand apart in the source and are kept apart here.

Assays:
SW-620 cell line = test: MTT cell viability assay, SW-620; conditions: for IC50: SW-620, MTT
Method: Briefly, cells were firstly seeded, in triplicate, into 96-well culture plates at 10^4 cells/well. […] The final concentration of ethanol in the cell medium was kept lower than 0.1%. Ethanol 0.1% was added to the control (untreated) cells.
(§1) The cytotoxicity of the essential oil single components was evaluated by MTT assay on 96-well plates. After 24, 48 and 72 h, MTT (dissolved in PBS) was diluted with fresh medium at final concentration of 0.5 mg/mL, added to cell culture and incubated at 37 °C. After 4 h, the medium was removed and 100 μL of DMSO was added. After 1 h at room temperature, the purple formazan crystals were dissolved, and the plates were read in a microplate reader (Victor3™, Perkin Elmer, Waltham, MA, USA). Absorbance was measured at 595 nm. Cell growth inhibition rate was calculated as a percentage of treated cells on control ones.

NCM-460 cell line = test: cells; conditions: for concentration affecting cell viability: NCM-460, after 24 h
Method: (§2) Briefly, cells were firstly seeded, in triplicate, into 96-well culture plates at 10^4 cells/well. […] Ethanol 99.5% was used to solubilize essential oils. The final concentration of ethanol in the cell medium was kept lower than 0.1%. Ethanol 0.1% was added to the control (untreated) cells.
as §1

Caco-2 cells [1] = conditions: viability of Caco-2 cells; cited from earlier work
Caco-2 cell line = test: cells; design: effect on cell growth, MTT: dose or concentration left out as unconfirmed; conditions: for IC50: Caco-2, MTT
Method: as §2, §1

NCM-460 cells [2] = test: Cell cycle analysis (propidium iodide, flow cytometry), NCM-460; type: cell-based, human; conditions: NCM-460, 72 h; 75 µM cinnamaldehyde, 800 µM eugenol; vs control
Method: (§3) Cell cycle analysis and apoptosis detection assay were only performed in cell treated with cinnamaldehyde and eugenol, at dosages that were not found toxic on the NCM-460 cell line. Briefly, 100,000 cells were seeded into 6-well cultured plates and allowed to attach for 24 h. After that, cells were treated for 72 h as previously described. Then, the cells were collected for the cell cycle analysis, washed twice with PBS, fixed with 70% ethanol, and incubated at −20 °C overnight. Then, the cells were washed with 500 µL of PBS, centrifuged at 1500 rpm for 5 min, resuspended in 500 μL of PBS containing 50 μg/mL RNase A and incubated for 30 min at room temperature. Cells were then centrifuged at 1500 rpm for 5 min, resuspended in PBS, and 10 µg/mL of Propidium iodide was added. Detection of apoptotic cells was performed with Annexin V/Propidium iodide detection kit, following the manufacturer’s instructions (Bender Medsystems, Wien, Austria). Cells were analyzed by flow cytometry (FACS) (Cytoflex, Beckman Coulter, CA, USA).

Caco-2 cells [3] = test: Cell cycle analysis (propidium iodide, flow cytometry), Caco-2; type: cell-based, human; conditions: Caco-2, 72 h; 75 µM cinnamaldehyde, 800 µM eugenol; vs control
Method: as §3

Caco-2 cells [4] = test: in vitro; type: cell-based, human; conditions: for cell death, Annexin V/PI: Caco-2, 72 h, 800 µM eugenol, 75 µM cinnamaldehyde
Method: as §3

SW-620 cells [5] = test: in vitro; type: cell-based, human; conditions: for Q2-UL cells (upper left quadrant, necrosis): SW620, 72 h, eugenol 800 µM (E800), cinnamaldehyde 75 µM (A75); for cell death, Annexin V/PI: SW-620, 72 h, 800 µM eugenol, 75 µM cinnamaldehyde
Method: as §3

NCM-460 cells [6] = test: in vitro; type: cell-based, human; conditions: NCM-460, 72 h; 800 µM eugenol, 75 µM cinnamaldehyde
Method: as §3

SW-620 cells [7] = test: Cell cycle analysis (propidium iodide, flow cytometry), SW-620; type: cell-based, human; conditions: SW-620, 72 h; 75 µM cinnamaldehyde, 800 µM eugenol; vs control
Method: as §3

in vitro = type: cell-based, human; conditions: human, eugenol 800 µM (E800), cinnamaldehyde 75 µM (A75), read-out: Q2-LL cells (lower left, viable, AnnexinV −/PI −)
Method: as §3

[8] = Homo sapiens, SW-620, 24 h, 24 h
[9] = Homo sapiens, SW-620, 72 h, 72 h
[10] = Homo sapiens, Caco-2, 24 h, 24 h
[11] = Homo sapiens, Caco-2, 72 h, 72 h
[12] = Caco2, 72 h, eugenol 800 µM (E800), cinnamaldehyde 75 µM (A75)

| Compound | concentration affecting cell viability (NCM-460 cell line) | effect on cell cycle progression (NCM-460 cells [2]) | effect on cell cycle progression (Caco-2 cells [3]) | IC50 (SW-620 cell line; [8]) | IC50 (SW-620 cell line; [9]) | Selectivity Index (SW-620 cell line; IC50 NCM460 / IC50 SW620, 24 h) | Selectivity Index (SW-620 cell line; IC50 NCM460 / IC50 SW620, 72 h) | IC50 (SW-620 cell line; 24 h) | IC50 (SW-620 cell line; 72 h) | cell death, Annexin V/PI (Caco-2 cells [4]) | Q2-UL cells (upper left quadrant, necrosis) (SW-620 cells [5]) | cell death, Annexin V/PI (SW-620 cells [5]) | cell death, Annexin V/PI (NCM-460 cells [6]) | effect on cell cycle progression (SW-620 cells [7]) | IC50 (Caco-2 cell line; 24 h) | IC50 (Caco-2 cell line; 72 h) | IC50 (Caco-2 cell line; [10]) | IC50 (Caco-2 cell line; [11]) | Selectivity Index (Caco-2 cell line; IC50 NCM460 / IC50 Caco2, 24 h) | Selectivity Index (Caco-2 cell line; IC50 NCM460 / IC50 Caco2, 72 h) | also measured |
| --- | --- | --- | --- | --- | --- | --- | --- | --- | --- | --- | --- | --- | --- | --- | --- | --- | --- | --- | --- | --- | --- |
| Cc1ccc(C(C)C)c(O)c1 [thymol] | 165 µM |  |  |  |  |  |  |  |  |  |  |  |  |  |  |  |  |  |  |  | cytotoxic effect, MTT (SW-620 cell line; SW-620, 660 and 1320 µM): cytotoxic effect was also detectable; toxic concentration (SW-620 cell line; SW-620, after 24 h): 660 µM; IC50 (Caco-2 cells [1]): 700 µM |
| C=C1CC/C=C(\C)CC[C@@H]2[C@@H]1CC2(C)C [β-caryophyllene] |  |  |  |  |  |  |  |  |  |  |  |  |  |  |  |  |  |  |  |  | effect on viability, MTT (SW-620 cell line; SW-620, 260 µM at 24, 48 and 72 h): affected the viability; effect on viability, MTT (NCM-460 cell line; NCM-460, 240 and 360 µM at 24 h and 120–260 µM at 72 h): affected the viability; effect on cell growth, MTT (Caco-2 cell line; Caco-2): increased cell growth |
| CC(C)=CCC/C(C)=C/CO [Geraniol] |  |  |  |  |  |  |  |  |  |  |  |  |  |  |  |  |  |  |  |  | effect on cell proliferation, MTT (NCM-460 cell line; NCM-460, 100–800 µM, 48–72 h): increase cell proliferation; effect on cell proliferation, MTT (Caco-2 cell line; Caco-2, 100–800 µM, 72 h): increase cell proliferation; cytotoxic effect, MTT (Caco-2 cell line; human, 72 h, 1000 µM): not on the Caco-2 cells |
| O=C/C=C/c1ccccc1 [cinnamaldehyde] |  | did not find differences | reduction of G2 phase | 92 µM | 92 µM | 2.37 | 0.9 | 92 µM | 92.1 µM | both late apoptosis and necrosis were detected | 15.98% | both late apoptosis and necrosis were detected | did not induce | G1 accumulation | 166 µM | 86.9 µM | 166 µM | 87 µM | 1.31 | 0.96 | effect on viability, MTT (SW-620 cell line; SW-620, 75 (µg/mL in the source), any timepoint): reduced viability; IC50 (NCM-460 cell line; Homo sapiens, NCM460, 24 h, NCM-460, MTT, 24 h): 218 µM; IC50 (NCM-460 cell line; Homo sapiens, NCM460, 72 h, NCM-460, MTT, 72 h): 83 µM; IC50 (NCM-460 cell line; NCM-460, MTT, 24 h): 218 µM; IC50 (NCM-460 cell line; NCM-460, MTT, 72 h): 83.2 µM; effect on viability, MTT (Caco-2 cell line; Caco-2, 75 (µg/mL in the source), 48 and 72 h): reduced viability |
| C=CCc1ccc(O)c(OC)c1 [eugenol] |  | did not find differences | reduction of G2 phase | 918 µM | 866 µM | 1.49 | 1.34 | 918 µM | 866 µM | both late apoptosis and necrosis were detected | 17.12% | both late apoptosis and necrosis were detected | did not induce | G1 accumulation | 485 µM | 730 µM | 458 µM | 730 µM | 2.82 | 1.60 | Q2-UL cells (upper left quadrant, necrosis) (Caco-2 cells [4]; [12]): 25.95%; Q2-UR cells (upper right quadrant, late apoptosis) (Caco-2 cells [4]; [12]): 5.55%; viability at 72 h (in vitro; Caco2, 72 h): 67.5%; viability at 72 h (in vitro; NCM460, 72 h): 95.4%; viability at 72 h (in vitro; SW620, 72 h): 81.3%; IC50 (NCM-460 cell line; Homo sapiens, NCM460, 24 h): 1370 µM; IC50 (NCM-460 cell line; Homo sapiens, NCM460, 72 h): 1160 µM; effect on cell proliferation, MTT (NCM-460 cell line; NCM-460, lower doses from 100 to 400 µM): seemed to stimulate; effect on cell proliferation, MTT (Caco-2 cell line; Caco-2, lower doses from 100 to 400 µM): seemed to stimulate |
| Cc1ccc(C(C)C)cc1O [carvacrol] | 500 µM |  |  |  |  |  |  |  |  |  |  |  |  |  |  |  |  |  |  |  | toxicity, MTT (SW-620 cell line; SW-620, 24 and 48 h, up to the maximum tested concentration of 750 μM): no toxicity; cytotoxic effect, MTT (SW-620 cell line; SW-620, 250, 500 and 750 µM, only after 72 h): modest statistically significant toxicity; effect on viability, MTT (Caco-2 cell line; Caco-2, same range of concentrations used by Llana-Ruiz-Cabello and co-workers [19]): reduced Caco-2 cell viability |
